Results on eight molecules are retold here after patent publication US11236059B2, “Targeted cytotoxic ratjadone derivatives and conjugates thereof” (HELMHOLTZ-ZENTRUM FUER INFEKTIONSFORSCHUNG GMBH, priority 2017, dated 2022).

Data set [1] relates to A549 (DSMZ ACC 107) cells. Briefly: cells. Type of data set: cell-based. The method, then:
(§1) 60 μL of serial dilutions of the test compound were given to 120 μL of suspended cells (50.000/mL) in wells of 96-well plates. After 5 days of incubation growth inhibition (IC50) was determined using an MTT assay.^[64]

In data set [2] the test system is MCF-7 (DSMZ ACC 115) cells. Briefly: cells. Type of data set: cell-based. The method, then:
as §1

Data set [3] relates to SKOV-3 (DSMZ ATCC HTB 77) cells. Briefly: cells. Type of data set: cell-based. Here is the method:
as §1

In the next data set the test system is L-929 (DSMZ ACC 2) cells. Briefly: Cell proliferation assay (MTT), L-929. Type of data set: cell-based. The conditions noted are these: read-out: IC50 [nM] L-929. Here is the method: as §1
The target in another data set is T1, CRM1 (Homo sapiens, UniProt O14980).
T1 construct: HeLa cells stably expressing a fluorescent translocation biosensor (HeLaRevBio); endogenous in cells; host or cells: HeLa (HeLaRevBio in A7; HeLa in A8)
Briefly: Monitoring export inhibitory activity (translocation biosensor, HeLaRevBio cells). Format: cell-based. The method in brief:
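HeLa cells stably expressing an NLS-GST-GFP-RevNES shuttle biosensor were treated with compound for 1 h, then fixed and Hoechst-stained. GFP intensity in nuclear and cytoplasmic regions was quantified by high-content imaging, and the inner-minus-outer mean intensity difference was the readout. IC50 came from four-parameter logistic fit; single-point testing used 125 nM final.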

For data set [4], the system named is KB 3.1 (DSMZ ACC 158) cells. Briefly: cells. Particulars: Homo sapiens, KB 3-1, 120 h, read-out: IC50 [nM] KB-3.1, growth inhibition, 5 days of incubation, MTT assay. (In general: Tetrazolium assays rely on reduction of a dye to a coloured formazan, in cell work by metabolically active cells.)
For data set [5], the system named is KB 3.1 (DSMZ ACC 158) cells. The conditions noted are these: growth inhibition, 5 days of incubation, MTT assay.
Data set [6] concerns the target T2, nuclear export receptor Crm1 (Homo sapiens, UniProt O14980).
T2 construct: HeLa cells stably expressing a fluorescent translocation biosensor (HeLaRevBio); endogenous in cells; host or cells: HeLa (HeLaRevBio in A7; HeLa in A8)
Briefly: Pull-down with ratjadone-biotin, LC-MS proteomic target identification. Format: binding. Particulars: HeLa cells, 0.1 μg/ml, 5h; streptavidin sepharose; 79 proteins identified. The method, then: Binding of Ratjadone to the nuclear export receptor Crm1 was shown in a chemical pull down. HeLa cells were treated with ratjadone-biotin, ratjadone or both at 0.1 μg/ml final concentration for 5h. Cells were detached by scraping, washed twice in PBS and lysed in MPER-buffer (Thermo Fisher, Waltham, USA) supplemented with complete protease inhibitor (Roche, Mannheim, Germany). After 5 min incubation on ice the lysate was centrifuged (20 min, 13000 rpm, 4° C.) and the supernatant was incubated with streptavidin sepharose high performance (GE healthcare, Freiburg, Germany) overnight at 4° C. The next day beads were washed twice with PBS and resuspended in elution buffer (Roth) and heated to 95° C. for 10 min. 5% were tested on WesternBlot with a biotin-specific antibody (see FIG. 11). The eluate was given to the proteomics platform (J. Wissing) for identification of proteins.

The conditions of data set [7]: control compounds; cited from earlier work.
Setting [8] is: HeLa cells stably expressing translocation biosensor, 1h of incubation, read-out: IC50 [nM] CRM1 (nuclear export inhibition).
Setting [9] is: growth inhibition, 5 days of incubation, MTT assay, read-out: IC50 [nM] A-549 (carrier molecules).
Setting [10] is: growth inhibition, 5 days of incubation, MTT assay, read-out: IC50 [nM] MCF-7 (carrier molecules).
Setting [11] is: growth inhibition, 5 days of incubation, MTT assay, read-out: IC50 [nM] SK-OV-3 (carrier molecules).
[12] abbreviates: read-out: IC50 [nM] KB-3.1 (carrier molecules).

Read-outs that look alike come from different tables or passages of the source.

As a reminder, the IC50 is the concentration needed to halve the response being measured.

T1 sequence (O14980 whole entry): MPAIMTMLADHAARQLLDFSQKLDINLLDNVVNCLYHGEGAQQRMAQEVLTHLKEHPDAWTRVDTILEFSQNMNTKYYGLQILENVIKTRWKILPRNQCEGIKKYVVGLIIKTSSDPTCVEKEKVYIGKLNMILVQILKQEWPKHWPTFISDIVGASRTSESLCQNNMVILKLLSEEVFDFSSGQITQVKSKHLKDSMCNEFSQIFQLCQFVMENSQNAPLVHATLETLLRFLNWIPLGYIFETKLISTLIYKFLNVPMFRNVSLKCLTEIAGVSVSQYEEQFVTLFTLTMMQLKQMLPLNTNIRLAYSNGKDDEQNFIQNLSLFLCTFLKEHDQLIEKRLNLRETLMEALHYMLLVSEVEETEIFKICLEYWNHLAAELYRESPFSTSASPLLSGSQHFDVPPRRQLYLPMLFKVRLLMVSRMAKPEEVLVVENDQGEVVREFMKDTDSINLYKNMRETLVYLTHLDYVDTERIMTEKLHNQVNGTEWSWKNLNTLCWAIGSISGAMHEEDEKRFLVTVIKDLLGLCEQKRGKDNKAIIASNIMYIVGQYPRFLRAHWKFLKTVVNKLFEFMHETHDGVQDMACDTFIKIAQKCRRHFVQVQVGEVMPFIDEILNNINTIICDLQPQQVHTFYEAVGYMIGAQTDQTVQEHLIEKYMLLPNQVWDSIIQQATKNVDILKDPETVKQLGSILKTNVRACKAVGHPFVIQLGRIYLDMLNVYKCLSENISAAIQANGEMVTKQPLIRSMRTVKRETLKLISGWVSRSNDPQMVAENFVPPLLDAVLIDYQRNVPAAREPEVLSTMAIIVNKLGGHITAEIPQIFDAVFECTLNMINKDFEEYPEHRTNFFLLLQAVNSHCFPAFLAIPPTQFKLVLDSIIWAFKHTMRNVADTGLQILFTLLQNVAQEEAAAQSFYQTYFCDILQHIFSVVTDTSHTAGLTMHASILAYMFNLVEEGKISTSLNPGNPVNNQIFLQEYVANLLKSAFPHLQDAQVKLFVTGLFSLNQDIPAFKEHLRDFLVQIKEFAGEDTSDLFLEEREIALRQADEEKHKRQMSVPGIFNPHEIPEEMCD
T2 sequence (O14980 whole entry): as above

On to `C/C=C/[C@@H]1O[C@H](C(=O)/C=C/C=C(\C)C[C@@H](C)/C=C(C)\C=C\[C@H]2CC=CC(=O)O2)C[C@@H](O)[C@@H]1C` [16-Oxo-Ratjadone 8, (R)-6-((R,1E,3Z,7E,9E)-11-((2S,4R,5S,6S)-4-hydroxy-5-methyl-6-((E)-prop-1-en-1-yl)tetrahydro-2H-pyran-2-yl)-3,5,7-trimethyl-11-oxoundeca-1,3,7,9-tetraen-1-yl)-5,6-dihydro-2H-pyran-2-one], for which the IC50 was 1.76 nM in data set [1] (Homo sapiens, A549, 120 h, read-out: IC50 [nM] A-549, growth inhibition, 5 days of incubation, MTT assay); 0.22 nM in [2] (Homo sapiens, MCF7, 120 h, read-out: IC50 [nM] MCF-7, growth inhibition, 5 days of incubation, MTT assay); 0.24 nM in data set [3] (Homo sapiens, SK-OV-3, 120 h, read-out: IC50 [nM] SK-OV-3, growth inhibition, 5 days of incubation, MTT assay); 12.6 nM in the data set on L-929 (DSMZ ACC 2) cells (Mus musculus, L929, 120 h); 52.5 nM on CRM1 (setting [8]); 2.57 nM in data set [4].

For the molecule `C/C=C/[C@@H]1O[C@H]([C@H](O)/C=C/C=C(\C)C[C@@H](C)/C=C(C)\C=C\[C@H]2CC=CC(=O)O2)CC(=O)[C@@H]1C` [19-Oxo-Ratjadone 9, (R)-6-((1E,3Z,5R,7E,9E,9E,11R)-11-hydroxy-3,5,7-trimethyl-11-((2S,5R,6S)-5-methyl-4-oxo-6-((E)-prop-1-en-1-yl)tetrahydro-2H-pyran-2-yl)undeca-1,3,7,9-tetraen-1-yl)-5,6-dihydro-2H-pyran-2-one], the IC50 stood at 0.1 nM in data set [1] (growth inhibition, 5 days of incubation, MTT assay, read-out: IC50 [nM] A-549); 0.48 nM in data set [2] (growth inhibition, 5 days of incubation, MTT assay, read-out: IC50 [nM] MCF-7); 0.16 nM in [3] (growth inhibition, 5 days of incubation, MTT assay, read-out: IC50 [nM] SK-OV-3); 24.3 nM in the data set with L-929 (DSMZ ACC 2) cells (growth inhibition, 5 days of incubation, MTT assay); 13.3 nM at CRM1 (setting [8]); 0.36 nM in data set [5] (read-out: IC50 [nM] KB-3.1).

At CRM1, `C/C=C/[C@@H]1O[C@H]([C@H](/C=C/C=C(\C)C[C@@H](C)/C=C(C)\C=C\[C@H]2CC=CC(=O)O2)NC(=O)OCCc2cn(CCOCCOCCOCCNC(=O)CCCC[C@@H]3SC[C@@H]4NC(=O)N[C@@H]43)nn2)C[C@@H](O)[C@@H]1C` [Biotin-PEG3-16S-Aminoratjadone, 2-(1-(13-oxo-17-((3aS,4S,6aR)-2-oxohexahydro-1H-thieno[3,4-d]imidazol-4-yl)-3,6,9-trioxa-12-azaheptadecyl)-1H-1,2,3-triazol-4-yl)ethyl ((1S,2E,4E,7R,8Z,10E)-1-((2S,4R,5S,6S)-4-hydroxy-5-methyl-6-((E)-prop-1-en-1-yl)tetrahydro-2H-pyran-2-yl)-5,7,9-trimethyl-11-((R)-6-oxo-3,6-dihydro-2H-pyran-2-yl)undeca-2,4,8,10-tetraen-1-yl)carbamate] had an IC50 of 152 nM. The “proteins identified in the pull-down eluate” value in data set [6] is recorded as “CRM1 having the highest area”.

On to `CC(C)C[C@H](NC(=O)[C@@H](CCCN=[N+]=[N-])NC(=O)[C@H](Cc1ccc(O)cc1)NC(=O)[C@H](CO)NC(=O)[C@H](Cc1c[nH]c2ccccc12)NC(=O)[C@H](Cc1c[nH]cn1)NC(=O)[C@@H]1CCC(=O)N1)C(=O)N[C@@H](CCCNC(=N)N)C(=O)N1CCC[C@H]1C(=O)NNC(N)=O` [D-N3-Orn-Goserellin, (S)—N-((6S,9S,12R,15S,18S,21S,24S)-21-((1H-indol-3-yl)methyl)-1-amino-12-(3-azidopropyl)-6-((S)-2-(2-carbamoylhydrazine-1-carbonyl)pyrrolidine-1-carbonyl)-15-(4-hydroxybenzyl)-18-(hydroxymethyl)-25-(1H-imidazol-4-yl)-1-imino-9-isobutyl-8,11,14,17,20,23-hexaoxo-2,7,10,13,16,19,22-heptaazapentacosan-24-yl)-5-oxopyrrolidine-2-carboxamide], for which the half-maximal inhibitory concentration (IC50) in [1] (setting [9]), in data set [2] (setting [10]), in [3] (setting [11]) and in data set [5] (setting [12]) was over 663000 nM throughout.

With `CC(C)C[C@H](NC(=O)[C@H](CCCN=[N+]=[N-])NC(=O)[C@H](Cc1ccc(O)cc1)NC(=O)[C@H](CO)NC(=O)[C@H](Cc1c[nH]c2ccccc12)NC(=O)[C@H](Cc1c[nH]cn1)NC(=O)[C@@H]1CCC(=O)N1)C(=O)N[C@@H](CCCNC(=N)N)C(=O)N1CCC[C@H]1C(=O)NCC(N)=O` [L-N3-Orn-LHRH, (S)-1-(((S)-2-((S)-2-((S)-2-((S)-2-((S)-3-(1H-imidazol-4-yl)-2-((S)-5-oxopyrrolidine-2-carboxamido)propanamido)-3-(1H-indol-3-yl)propanamido)-3-hydroxypropanamido)-3-(4-hydroxyphenyl)propanamido)-5-azidopentanoyl)-L-leucyl-L-arginyl)-N-(2-amino-2-oxoethyl)pyro-lidine-2-carboxamide], the half-maximal inhibitory concentration (IC50) in data set [1] (setting [9]), in [2] (setting [10]), in data set [3] (setting [11]) and in data set [5] (setting [12]) was over 727000 nM throughout.

For `CC(C)C[C@H](NC(=O)CNC(=O)[C@H](Cc1ccc(O)cc1)NC(=O)[C@H](CO)NC(=O)[C@H](Cc1c[nH]c2ccccc12)NC(=O)[C@H](Cc1c[nH]cn1)NC(=O)[C@@H]1CCC(=O)N1)C(=O)N[C@@H](CCCNC(=N)N)C(=O)N1CCC[C@H]1C(=O)NCC(N)=O` [LHRH, (S)—N-(2-amino-2-oxoethyl)-1-(((S)-5-oxopyrrolidine-2-carbonyl)-L-histidyl-L-tryptophyl-L-seryl-L-tyrosylglycyl-L-leucyl-L-arginyl)pyrrolidine-2-carboxamide, reference compound], the IC50 in data set [1] (setting [9]), in [2] (setting [10]), in data set [3] (setting [11]) and in data set [5] (setting [12]) was over 405000 nM each time.

`CCN(CC)CCOC(=O)c1ccc(N)cc1` [Procaine, procaine]: the “stability in mouse plasma” value in data set [7] is on record as “unstable”.

Take `CCCOc1cc(N)ccc1C(=O)OCCN(CC)CC` [propoxycaine]: the “stability in mouse plasma” value in [7] is on record as “unstable”.
